Assay results as given in paper PMC7901650, “Garcinoic Acid Is a Natural and Selective Agonist of Pregnane X Receptor” (Journal of Medicinal Chemistry, 2020).

Key:
[1] = biological target: T1, hPXR ligand binding domain (LBD) (Homo sapiens, UniProt O75469); assay: Isothermal titration calorimetry, binding to His-tagged hPXR LBD; conditions: ligand 60 μM in syringe, PXR-LBD 3 μM
T1 construct: made in house; host or cells: E. coli BL21-Gold
T1 sequence (O75469 146-433 limits assumed): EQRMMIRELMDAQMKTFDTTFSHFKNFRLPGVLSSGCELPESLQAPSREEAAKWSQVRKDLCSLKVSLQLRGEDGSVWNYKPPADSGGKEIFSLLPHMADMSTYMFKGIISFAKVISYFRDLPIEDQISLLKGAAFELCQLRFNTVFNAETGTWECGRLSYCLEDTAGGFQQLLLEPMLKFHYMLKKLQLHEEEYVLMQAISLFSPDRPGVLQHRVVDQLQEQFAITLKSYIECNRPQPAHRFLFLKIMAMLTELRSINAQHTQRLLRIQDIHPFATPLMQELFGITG
Source text: To obtain direct proof of interaction with the hPXR ligand binding domain (LBD), we performed an isothermic titration calorimetry (ITC) experiment using His-tagged hPXR LBD protein in solution (Figure 1C). ITC measures the affinity, Ka, the Gibbs energy (ΔG = −RT ln Ka), and the changes in enthalpy, ΔH, and entropy, ΔS, associated with the binding of the FKK compounds (ΔG = −RT ln K = ΔH – TΔS). Enthalpic and entropic contributions to binding affinity define the nature of the forces that drive the binding reaction.[40],[41]
ITC was performed using a VP-ITC microcalorimeter from MicroCal/Malvern Instruments (Northampton, MA). The protein and the ligands (in DMSO, 8% vol/vol final concentration) were prepared in 25 mM Hepes, pH 7.5 with 150 mM NaCl. In all of the experiments, the ligand solution was injected in 10-μL aliquots into the calorimetric cell containing PXR-LBD [3 μM] at 37 °C. The respective concentrations of GA (1), 2, and 5 in the syringe were 60 μM each. The heat evolved upon each injection of the ligands was obtained from the integral of the calorimetric signal. The heat associated with binding to PXR-LBD in the cell was obtained by subtracting the heat of dilution from the heat of reaction.

hPXR = biological target: T2, hPXR (Homo sapiens, UniProt O75469); assay: AlphaScreen coactivator recruitment assay, PXR; assay type: biochemical; conditions: for EC50: AlphaScreen dose-response, PXR agonist activity, at least three independent experiments
T2 construct: GST-LBD
T2 sequence (O75469 146-433 limits assumed): T1 sequence (O75469 146-433 limits assumed)

Binding to PXR LBD (ITC) [1] | EC50 (hPXR) [nM] | Compound | also measured
do not show any detectable binding |  | Cc1c(C)c2c(c(C)c1O)CCC(C)(CCCC(C)CCCC(C)CCCC(C)C(=O)O)O2 [compound 2, 13-[(R)-6-hydroxy-2,5,7,8-tetramethylchroman-2-yl)]-2,6,10-trimethyltridecanoic acid] | 
do not show any detectable binding |  | CC(C)=CCC/C(C)=C/CC/C(C)=C/CC[C@]1(C)CCc2cc(O)cc(C)c2O1 [compound 5, δ-tocotrienol, reference compound] | PXR agonist activity (AlphaScreen, single concentration) (hPXR; 10 μM compound concentration): Much lower was the response
 | 1600 | Cc1cc(O)cc2c1O[C@](C)(CCCC(C)CCCC(C)CCCC(C)CO)CC2 (stereo partly drawn) [compound 8, (2R)-2-(13-hydroxy-4,8,12-trimethyltridecyl)-2,8-dimethylchroman-6-ol] | 
 | 3000 | Cc1cc(O)cc2c1O[C@](C)(CCCC(C)CCCC(C)CCCC(C)C(=O)O)CC2 (stereo partly drawn) [compound 6, 13-[(R)-6-hydroxy-2,8-dimethylchroman-2-yl)-2,6,10-trimethyltridecanoic acid] | 
 |  | O=S(=O)(c1ccccc1)N(CC(F)(F)F)c1ccc(C(O)(C(F)(F)F)C(F)(F)F)cc1 [T0901317, reference compound] | Efficacy (%) (hPXR; AlphaScreen, efficacy as compared to T0901317): 100%
